Data as given in US10703796B2, “CD44v6-derived cyclic peptides for treating cancers and angiogenesis related diseases” (AMCURE GMBH, priority 2014, dated 2020).
Bridges are numbered along the chain shown (N, C = ends). Where no end group is shown, it is not given here. [ ]: non-standard residue; d: D form.

Tests used:
Type in all cases: cell-based, human
Erk = test: HGF-induced activation of Erk in Panc1 cells (blot of activated Erk vs total Erk); conditions: peptide 30 nM for 5 min at 37° C. prior to HGF 10 ng/ml for 5 min
Method: (§1) Human adenocarcinoma cells, Panc1, were seeded at 2×10^5 cells per well in a 6-well plate. The day after seeding the cells, they were starved for 24 h. The following day, the cells were treated as indicated with either alga1 or D3alga1, a control peptide (N-A-A-A-E (SEQ ID NO: 37)) at a concentration of 30 nM for 5 min at 37° C. prior to induction with HGF (10 ng/ml) at 37° C. for 5 min. Results are given in FIG. 3 (A: alga1; B: D3alga1).
(§2) Human adenocarcinoma cells, Panc1, were seeded at 2×10^5 cells per well in a 6-well plate. The day after seeding, the cells were starved for 24 h. The following day, the cells were treated as indicated with either D1alga1, D2alga1 or D3alga1, a human CD44v6 14mer (h14mer) or control peptide (N-A-A-A-E (SEQ ID NO: 37)) at a concentration of 30 nM for 5 min at 37° C. prior to induction with HGF (10 ng/ml) at 37° C. for 5 min.

c-Met = test: HGF-induced activation of c-Met in Panc1 cells (blot of activated Met vs total Met); conditions: peptide 30 nM for 5 min at 37° C. prior to HGF 10 ng/ml for 5 min
Method: as §1, §2

Panc 1 cells = test: Wound healing assay, Example 9 (FIG. 15); conditions: 500 nM, HGF 100 ng/ml, photos up to 48 hours after induction
Method: Cell migration is connected to angiogenesis where cells need to migrate in order to form new blood vessels. Angiogenesis is related to cancer metastasis.
Panc 1 cells were seeded in 6-well plates at a concentration of 3×10^5 cells per well and were allowed to adhere and form a confluent monolayer. After a starving period of 24 hours, a scratch was inserted using a sterile pipette tip. Medium was aspirated to remove scratched cells and replaced by new starving medium. containing reagents as indicated at a concentration of […] tested for their blocking quality.
The following reagents were added to the medium at a concentration of 500 nM to test their blocking efficiency: D3-epga1, D4-epga1, D2-epal1, D3-epal1, D4-epal1, D3-alga1, D3-alga2, D4-alga2, D5-alga2, D6-alga3, Epga-1, Epal-1, Alga-2 and Alga-3. After 30 min incubation at 37° C., growth factor HGF was added to induce migration (HGF 100 ng/ml). Photos of the cells were taken immediately after scratch (Day 1), 24 hours (Day 2) and 48 hours (D3) after induction using a Canon Power Shot G12 digital camera.

Substance	activation of Erk (Erk)	activation of c-Met (c-Met)	blocking of cell migration (Panc 1 cells)
D1alga1: cyclic CD44v6 5mer containing a D-amino acid at position 1 ([dK]RWHE; lactam N-5)	blocks activation of c-Met and Erk	blocks activation of c-Met	
D2alga1: cyclic CD44v6 5mer containing a D-amino acid at position 2 (K[dR]WHE; lactam N-5)	blocks activation of c-Met and Erk	blocks activation of c-Met	
D3-epga1: cyclic 5 mer, ep/ga cyclisation, D-amino acid at position 3 per naming scheme (FIG. 13) (KR[dW]HE; lactam 1-5)			efficient in blocking cell migration
cy[αKGNRWHEγ] (KGNRW[dH]E; lactam N-7) [D6-alga3, cyclisation via N-terminal amino group of K and side chain carboxyl group of E, H is a D-amino acid]			Most efficient blocking of cell migration
cy[αKNRWHEγ] (lactam N-6) [Alga-2]			Most efficient blocking of cell migration
cy[εKRWHEα]γ] (K[dR]WHE; lactam 1-C; also: cyclised per cy[εKRWHEα]γ], linkage unclear) [D2-epal1]			Most efficient blocking of cell migration
